{"source": "paper doi:10.1101/2021.07.02.450968v1", "about": "(biorxiv, 2021)", "key": {"[1]": {"target": "T1, FABP2 (intestine, I-FABP) (Homo sapiens, UniProt P12104)", "T1 sequence (P12104 2-132)": "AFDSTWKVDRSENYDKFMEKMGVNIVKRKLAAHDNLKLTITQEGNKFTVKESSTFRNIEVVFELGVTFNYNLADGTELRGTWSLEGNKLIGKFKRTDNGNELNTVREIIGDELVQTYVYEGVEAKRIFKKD", "test": "fluorescence polarisation saturation binding"}, "[2]": {"target": "T2, FABP4 (adipocyte, A-FABP) (Homo sapiens, UniProt P15090)", "T2 sequence (P15090 whole entry)": "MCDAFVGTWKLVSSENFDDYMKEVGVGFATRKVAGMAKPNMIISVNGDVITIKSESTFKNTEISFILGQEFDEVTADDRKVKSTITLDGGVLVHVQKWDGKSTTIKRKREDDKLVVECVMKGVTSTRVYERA", "test": "fluorescence polarisation saturation binding"}, "FABP1 (liver, L-FABP) [3]": {"target": "T3, FABP1 (liver, L-FABP) (Homo sapiens, UniProt P07148)", "T3 sequence (P07148 1-127)": "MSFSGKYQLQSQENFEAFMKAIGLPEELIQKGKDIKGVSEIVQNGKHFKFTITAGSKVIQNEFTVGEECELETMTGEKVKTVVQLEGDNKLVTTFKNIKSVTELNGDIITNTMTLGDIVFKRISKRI", "test": "fluorescence polarisation saturation binding"}, "FABP3 (heart, H-FABP) [4]": {"target": "T4, FABP3 (heart, H-FABP) (Homo sapiens, UniProt P05413)", "T4 sequence (P05413 whole entry)": "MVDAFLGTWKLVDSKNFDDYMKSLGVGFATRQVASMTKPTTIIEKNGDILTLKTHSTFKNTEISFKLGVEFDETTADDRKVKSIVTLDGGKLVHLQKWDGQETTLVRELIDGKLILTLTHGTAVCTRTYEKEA", "test": "fluorescence polarisation saturation binding"}, "[5]": {"target": "T5, FABP5 (brain, B-FABP or epidermal, E-FABP) (Homo sapiens, UniProt Q01469)", "T5 sequence (Q01469 2-135)": "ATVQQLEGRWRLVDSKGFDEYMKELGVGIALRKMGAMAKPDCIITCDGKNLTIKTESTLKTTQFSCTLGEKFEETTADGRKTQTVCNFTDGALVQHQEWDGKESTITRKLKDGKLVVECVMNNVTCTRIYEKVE", "test": "fluorescence polarisation saturation binding"}, "FABP3 (heart, H-FABP) [6]": {"target": "T4, FABP3 (heart, H-FABP)", "test": "fluorescence polarisation competition vs BODIPY C4,C9", "assay_type": "binding"}, "FABP1 (liver, L-FABP) [7]": {"target": "T3, FABP1 (liver, L-FABP)", "test": "fluorescence polarisation competition vs BODIPY C4,C9", "assay_type": "binding"}, "GR (α sub-type)": {"target": "T6, GR (α sub-type) (Homo sapiens, UniProt P04150)", "T6 sequence (P04150 1-777)": "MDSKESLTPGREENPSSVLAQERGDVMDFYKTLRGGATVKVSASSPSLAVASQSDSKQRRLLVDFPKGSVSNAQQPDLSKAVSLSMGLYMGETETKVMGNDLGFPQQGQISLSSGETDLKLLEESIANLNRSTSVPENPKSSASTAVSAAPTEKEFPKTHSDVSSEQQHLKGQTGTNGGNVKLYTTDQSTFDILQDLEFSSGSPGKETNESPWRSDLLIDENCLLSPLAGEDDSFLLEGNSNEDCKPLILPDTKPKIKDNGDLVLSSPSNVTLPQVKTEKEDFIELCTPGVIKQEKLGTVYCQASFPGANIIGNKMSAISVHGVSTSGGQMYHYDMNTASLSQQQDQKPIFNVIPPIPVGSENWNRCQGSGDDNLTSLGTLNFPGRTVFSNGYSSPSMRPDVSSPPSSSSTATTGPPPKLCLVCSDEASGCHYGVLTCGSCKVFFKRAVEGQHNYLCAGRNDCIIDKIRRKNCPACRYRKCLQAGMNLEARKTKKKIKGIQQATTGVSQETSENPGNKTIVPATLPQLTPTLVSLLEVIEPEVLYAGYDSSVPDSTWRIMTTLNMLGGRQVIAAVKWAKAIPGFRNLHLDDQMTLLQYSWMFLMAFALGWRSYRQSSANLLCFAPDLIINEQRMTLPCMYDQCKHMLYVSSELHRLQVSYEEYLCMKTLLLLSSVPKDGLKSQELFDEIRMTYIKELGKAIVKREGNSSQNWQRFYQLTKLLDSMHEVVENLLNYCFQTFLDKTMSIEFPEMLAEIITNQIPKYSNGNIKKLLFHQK", "test": "GRE-SEAP reporter gene assay, COS-7", "assay_type": "cell-based", "conditions": "24 h agonist treatment; nominal EC80 concentration from reporter curves"}, "[8]": {"target": "T5, FABP5 (brain, B-FABP or epidermal, E-FABP)", "test": "fluorescence polarisation competition vs BODIPY C4,C9", "assay_type": "binding"}, "[9]": {"target": "T1, FABP2 (intestine, I-FABP)", "test": "fluorescence polarisation competition vs BODIPY C4,C9", "assay_type": "binding"}, "[10]": {"target": "T2, FABP4 (adipocyte, A-FABP)", "test": "fluorescence polarisation competition vs BODIPY C4,C9", "assay_type": "binding"}}}
{"smiles": "CCCCc1ccc2n1[B-](F)(F)[N+]1=C(CCCCCCCCC(=O)O)C=CC1=C2", "note": "[BODIPY 500/510 C4, C9]", "values": [{"measurement": "Kd", "setting": "[1]", "result": 4.1, "unit": "µM"}, {"measurement": "Kd", "setting": "[2]", "result": 0.42, "unit": "µM"}, {"measurement": "Kd", "setting": "FABP1 (liver, L-FABP) [3]", "result": 0.09, "unit": "µM"}, {"measurement": "Kd", "setting": "FABP3 (heart, H-FABP) [4]", "result": 0.02, "unit": "µM"}, {"measurement": "Kd", "setting": "[5]", "result": 0.16, "unit": "µM"}]}
{"smiles": "CCCC1O[C@@H]2C[C@H]3[C@@H]4CCC5=CC(=O)C=C[C@]5(C)[C@H]4[C@@H](O)C[C@]3(C)[C@]2(C(=O)CO)O1", "note": "(stereo partly drawn) [Budesonide]", "values": [{"measurement": "Ki", "setting": "FABP3 (heart, H-FABP) [6]", "result": 0.0575, "unit": "µM"}, {"measurement": "Ki", "setting": "FABP1 (liver, L-FABP) [7]", "result": 85.1, "unit": "µM"}, {"measurement": "EC80", "setting": "GR (α sub-type)", "result": "~ 10 μM"}, {"measurement": "Ki", "setting": "[8]", "result": 19.1, "unit": "µM"}]}
{"smiles": "C[C@]12CCC(=O)C=C1CC[C@@H]1[C@@H]2C(=O)C[C@@]2(C)[C@H]1CC[C@]2(O)C(=O)CO", "note": "[Cortisone]", "values": [{"measurement": "Ki", "setting": "FABP3 (heart, H-FABP) [6]", "result": 107, "unit": "µM"}, {"measurement": "Ki", "setting": "FABP1 (liver, L-FABP) [7]", "result": 302, "unit": "µM"}, {"measurement": "Ki", "setting": "[8]", "result": 129, "unit": "µM"}, {"measurement": "Ki", "setting": "[9]", "result": 16.6, "unit": "µM"}, {"measurement": "Ki", "setting": "[10]", "result": 977, "unit": "µM"}]}
{"smiles": "C[C@@H]1C[C@H]2[C@@H]3CCC4=CC(=O)C=C[C@]4(C)[C@@]3(F)[C@@H](O)C[C@]2(C)[C@@]1(O)C(=O)CO", "note": "[Dexamethasone]", "values": [{"measurement": "Ki", "setting": "FABP3 (heart, H-FABP) [6]", "result": 5.62, "unit": "µM"}, {"measurement": "Ki", "setting": "FABP1 (liver, L-FABP) [7]", "result": 27.5, "unit": "µM"}, {"measurement": "EC80", "setting": "GR (α sub-type)", "result": "~ 10 μM"}, {"measurement": "Ki", "setting": "[10]", "result": 74.1, "unit": "µM"}]}
{"smiles": "C[C@]12CCC(=O)C=C1CC[C@@H]1[C@@H]2[C@@H](O)C[C@@]2(C)[C@H]1CC[C@]2(O)C(=O)CO", "note": "[Hydrocortisone]", "values": [{"measurement": "Ki", "setting": "FABP3 (heart, H-FABP) [6]", "result": 7.76, "unit": "µM"}, {"measurement": "Ki", "setting": "FABP1 (liver, L-FABP) [7]", "result": 38.9, "unit": "µM"}, {"measurement": "EC80", "setting": "GR (α sub-type)", "result": "~ 1 mM"}, {"measurement": "Ki", "setting": "[8]", "result": 21.9, "unit": "µM"}, {"measurement": "Ki", "setting": "[10]", "result": 120, "unit": "µM"}]}
{"smiles": "C[C@H]1C[C@@H]2[C@H]([C@@H](O)C[C@@]3(C)[C@H]2CC[C@]3(O)C(=O)CO)[C@@]2(C)C=CC(=O)C=C12", "note": "[Methylprednisolone]", "values": [{"measurement": "Ki", "setting": "FABP3 (heart, H-FABP) [6]", "result": 117, "unit": "µM"}, {"measurement": "Ki", "setting": "FABP1 (liver, L-FABP) [7]", "result": 79.4, "unit": "µM"}, {"measurement": "Ki", "setting": "[9]", "result": 3.39, "unit": "µM"}, {"measurement": "Ki", "setting": "[10]", "result": 2000, "unit": "µM"}]}
{"smiles": "C[C@]12C=CC(=O)C=C1CC[C@@H]1[C@@H]2[C@@H](O)C[C@@]2(C)[C@H]1CC[C@]2(O)C(=O)CO", "note": "[Prednisolone]", "values": [{"measurement": "Ki", "setting": "FABP3 (heart, H-FABP) [6]", "result": 70.8, "unit": "µM"}, {"measurement": "Ki", "setting": "FABP1 (liver, L-FABP) [7]", "result": 47.9, "unit": "µM"}, {"measurement": "EC80", "setting": "GR (α sub-type)", "result": "~ 100 μM"}, {"measurement": "Ki", "setting": "[9]", "result": 11, "unit": "µM"}, {"measurement": "Ki", "setting": "[10]", "result": 1150, "unit": "µM"}]}
{"smiles": "C[C@]12C=CC(=O)C=C1CC[C@@H]1[C@@H]2C(=O)C[C@@]2(C)[C@H]1CC[C@]2(O)C(=O)CO", "note": "[Prednisone]", "values": [{"measurement": "Ki", "setting": "FABP3 (heart, H-FABP) [6]", "result": 7.59, "unit": "µM"}, {"measurement": "Ki", "setting": "FABP1 (liver, L-FABP) [7]", "result": 288, "unit": "µM"}, {"measurement": "Ki", "setting": "[8]", "result": 9.33, "unit": "µM"}, {"measurement": "Ki", "setting": "[10]", "result": 35.5, "unit": "µM"}]}
{"smiles": "C[C@H]1C[C@H]2[C@@H]3CCC4=CC(=O)C=C[C@]4(C)[C@@]3(F)[C@@H](O)C[C@]2(C)[C@@]1(O)C(=O)CO", "note": "[β-methasone]", "values": [{"measurement": "Ki", "setting": "FABP1 (liver, L-FABP) [7]", "result": 91.2, "unit": "µM"}, {"measurement": "EC80", "setting": "GR (α sub-type)", "result": "~ 10 μM"}, {"measurement": "Ki", "setting": "[9]", "result": 72.4, "unit": "µM"}]}
